Patent US20070129403A1, “METHOD OF TREATING SCHIZOPHRENIA AND/OR GLUCOREGULATORY ABNORMALITIES” (AVENTIS PHARMACEUTICALS INC., priority 2004, published 2007)
Several values for one entry are separate records, joined by “and”; a condition that tells them apart may be missing. Equal entries are not always repeated.

Tests used:
[1] = tested on: release of norepinephrine, acetylcholine and serotonin; details: dependence on added calcium; Smith et al, 1993; 1996; cited from earlier work
[2] = target: T1, cloned human Kv2.1 potassium channels (Homo sapiens, UniProt Q14721); assay: Whole-cell patch clamp, cloned human Kv2.1 channels expressed in U-373MG cells; assay type: cell-based; details: for Kv 2.1 Current (% Control), Average: average of cells; for Kv 2.1 Current (% Control), single cells: individual cells
T1 construct: expressed in transfected cells; host or cells: U-373MG (G418 selection)
T1 sequence (Q14721 1-858): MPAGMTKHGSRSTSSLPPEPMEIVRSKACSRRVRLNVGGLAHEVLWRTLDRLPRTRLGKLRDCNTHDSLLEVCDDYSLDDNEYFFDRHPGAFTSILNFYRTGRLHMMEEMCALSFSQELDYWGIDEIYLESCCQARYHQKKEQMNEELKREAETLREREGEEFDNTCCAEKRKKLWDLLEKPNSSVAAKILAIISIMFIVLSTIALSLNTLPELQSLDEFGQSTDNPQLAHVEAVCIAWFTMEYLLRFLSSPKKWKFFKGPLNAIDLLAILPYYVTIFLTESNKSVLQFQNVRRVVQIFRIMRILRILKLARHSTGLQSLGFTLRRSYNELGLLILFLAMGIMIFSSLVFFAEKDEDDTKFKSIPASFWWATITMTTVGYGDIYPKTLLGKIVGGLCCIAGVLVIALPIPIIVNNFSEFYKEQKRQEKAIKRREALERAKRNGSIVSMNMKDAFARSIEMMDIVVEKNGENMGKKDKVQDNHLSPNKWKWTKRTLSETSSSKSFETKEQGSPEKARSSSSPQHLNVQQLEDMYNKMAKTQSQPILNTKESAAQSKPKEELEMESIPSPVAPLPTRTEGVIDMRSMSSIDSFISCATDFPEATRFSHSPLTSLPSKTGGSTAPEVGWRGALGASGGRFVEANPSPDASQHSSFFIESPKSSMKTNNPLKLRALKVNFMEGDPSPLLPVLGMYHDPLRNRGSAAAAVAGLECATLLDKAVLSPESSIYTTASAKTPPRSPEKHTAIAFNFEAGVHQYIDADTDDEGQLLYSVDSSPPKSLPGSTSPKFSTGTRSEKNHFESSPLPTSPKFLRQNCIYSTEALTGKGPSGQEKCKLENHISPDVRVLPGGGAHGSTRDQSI
Protocol: The purpose of this in vitro study was to evaluate the effects of HP184 on cloned human Kv2.1 potassium channels expressed in U-373MG cells using the whole-cell patch-clamping technique.
U-373MG cells expressing the human Kv2.1 channels were grown in DMEM media supplemented with 10% fetal bovine serum, 1×penicillin/streptomycin and […], G418 (Invitrogen, Carlsbad, Calif.) in an atmosphere of 95% air/5% CO2. Cells used for patch-clamping were seeded on glass or plastic coverslips 12-36 hours before use. Kv2.1 Currents were recorded at room temperature using the whole-cell configuration of the patch clamp technique with an Axopatch 200B amplifier (Axon Instruments, Foster City, Calif.). Briefly, electrodes (2-4 MΩ resistance) were fashioned from TW150F glass capillary tubes (World Precision Instruments, Sarasota, Fla.) and filled with pipette solution (in mM: potassium aspartate 120; KCl 20; Na2ATP 4; HEPES 5; MgCl2 1; pH 7.2 adjusted with KOH). For dose-dependently, currents were initiated by a 300-ms positive voltage pulse (20 mV) followed by a 50-ms negative pulse (−100 mV) and were recorded for off-line analyses. Once current from a cell perfused with control external solution (in mM: NaCl 130; KCl 5; sodium acetate 2.8; MgCl2 1; HEPES, 10; glucose 10; CaCl2 1 at pH7.4 adjusted with NaOH) was stabilized, the cell was perfused with external solution containing 1 μM HP184 (batch: R.C.4.53.3; molecular weight: 320.5; diluted from a 50 mM stock solution in DMSO; the DMSO final concentration in all drug solutions was not more than 0.06%). Currents were continuously recorded until they reached steady-state condition. The same procedure was performed with increasing concentrations of HP184 (3, 10 and 30 μM, sequentially). For each concentration from each cell, the steady-state current at the end of the 20-mV activation pulse was measured in pico Ampere (pA). The amplitude in pA for each concentration was compared with that for the control solution from the same cell and expressed as percent control (% control).

[3] = target: T2, voltage-gated potassium channels in hamster HIT-T15 insulinoma cells (Mesocricetus auratus, UniProt A0A3Q0CYQ2); assay: Whole-cell patch clamp, voltage-gated potassium currents in HIT-T15 insulinoma cells; assay type: cell-based, Syrian Hamster; details: for Voltage-Gated Potassium Current (% Control), Average: average of cells; for Voltage-Gated Potassium Current (% Control), single cells: individual cells #1-#5
T2 construct: endogenous in cells; host or cells: HIT-T15 (Syrian hamster insulinoma)
T2 sequence (A0A3Q0CYQ2 1-857): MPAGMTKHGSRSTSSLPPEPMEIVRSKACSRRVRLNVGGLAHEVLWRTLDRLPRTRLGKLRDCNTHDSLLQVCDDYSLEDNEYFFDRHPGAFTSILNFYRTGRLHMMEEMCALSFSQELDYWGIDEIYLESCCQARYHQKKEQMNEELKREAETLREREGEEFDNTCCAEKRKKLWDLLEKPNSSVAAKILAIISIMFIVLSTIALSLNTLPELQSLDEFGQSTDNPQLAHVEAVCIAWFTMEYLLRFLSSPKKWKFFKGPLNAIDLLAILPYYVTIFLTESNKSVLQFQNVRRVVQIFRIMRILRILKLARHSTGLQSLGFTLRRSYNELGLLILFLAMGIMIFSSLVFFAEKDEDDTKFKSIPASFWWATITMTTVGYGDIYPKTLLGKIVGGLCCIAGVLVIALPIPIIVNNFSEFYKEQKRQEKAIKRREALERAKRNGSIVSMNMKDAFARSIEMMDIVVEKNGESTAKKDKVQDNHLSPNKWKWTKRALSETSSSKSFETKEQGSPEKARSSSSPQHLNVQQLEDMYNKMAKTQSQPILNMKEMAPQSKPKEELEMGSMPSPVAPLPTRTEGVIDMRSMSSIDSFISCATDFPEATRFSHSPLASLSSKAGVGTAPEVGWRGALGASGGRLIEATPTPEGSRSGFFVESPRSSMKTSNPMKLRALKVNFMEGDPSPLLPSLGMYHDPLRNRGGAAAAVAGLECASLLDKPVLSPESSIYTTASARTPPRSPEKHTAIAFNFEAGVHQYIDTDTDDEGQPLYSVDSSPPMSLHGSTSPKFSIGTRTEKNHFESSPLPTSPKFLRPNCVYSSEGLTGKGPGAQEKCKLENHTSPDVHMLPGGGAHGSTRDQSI
Protocol: The purpose of this in vitro study was to evaluate the effects of HP184 on voltage-gated potassium channels in hamster HIT-T15 insulinoma cells using the whole-cell patch-clamping technique.
HIT-T15 cells (from Syrian Hamster pancreas) expressing voltage-gated potassium channels were grown in RPMI media supplemented with 10% fetal bovine serum and 1×penicillin/streptomycin in an atmosphere of 95% air/5% CO2. Cells used for patch-clamping were seeded on glass or plastic coverslips 12-36 hours before use. Currents were recorded at room temperature using the whole-cell configuration of the patch clamp technique with an Axopatch 200B amplifier (Axon Instruments, Foster City, Calif.). Briefly, electrodes (3-6 MΩ resistance) were fashioned from TW150F glass capillary tubes (World Precision Instruments Sarasota, Fla.) and filled with pipette solution (in mM: potassium aspartate 120; KCl 20; Na2ATP 4; HEPES 5; MgCl2 1; pH 7.2 adjusted with KOH). Currents were initiated by a 300-ms positive voltage pulse (20 mV) followed by a 50-ms negative pulse (−100 mV) and were recorded for off-line analyses. Once current from a cell perfused with control external solution (in mM: NaCl 130; KCl 5; sodium acetate 2.8; MgCl2 1; HEPES, 10; glucose 10; CaCl2 1 at pH7.4 adjusted with NaOH) was stabilized, the cell was perfused with external solution containing 1 μM HP184 (batch: R.C.4.53.3; molecular weight: 320.5; diluted from a 50 mM stock solution in DMSO prepared daily; the DMSO final concentration in all drug solutions was not more than 0.06%). Currents were continuously recorded until they reached steady-state condition. The same procedure was performed with increasing concentrations of HP184 (3, 10 and 30 μM, sequentially). For each concentration from each cell, the steady-state current at the end of the 20-mV activation pulse was measured in pico Ampere (pA).
The amplitude in pA for each concentration was compared with that for the control solution from the same cell and expressed as percent control (% control).

Nc1ccncc1 [4-AP, 4-aminopyridine]
Release of norepinephrine, acetylcholine and serotonin from rat brain slices (in words) [1]: dependent on added calcium

CCCN(c1ccncc1F)n1cc(C)c2ccccc21 [HP184, N-(3-fluoro-4-pyridinyl)-N-propyl-3-methyl-1H-indole-1-amine]
Kv 2.1 Current (% Control), Average ([2]; 1 μM): 91.7 % Control
Kv 2.1 Current (% Control), single cells ([2]; 1 μM): 98 % Control and 91.0 % Control and 89.2 % Control and 91.6 % Control and 95.0 % Control and 90.5 % Control (2×) and 94.5 % Control and 83.6 % Control and 91.8 % Control and 95.5 % Control
Kv 2.1 Current (% Control), Average ([2]; 3 μM): 72.3 % Control
Kv 2.1 Current (% Control), single cells ([2]; 3 μM): 93.0 % Control and 63.1 % Control and 69.6 % Control and 62.9 % Control and 68.5 % Control and 70.8 % Control and 87.5 % Control and 86.1 % Control and 88.5 % Control and 79.9 % Control and 89.7 % Control
Kv 2.1 Current (% Control), Average ([2]; 10 μM): 28.3 % Control
Kv 2.1 Current (% Control), single cells ([2]; 10 μM): 58.2 % Control and 19.9 % Control and 37.7 % Control and 24.4 % Control and 17.1 % Control and 38.5 % Control and 43.8 % Control and 13.1 % Control and 19.1 % Control and 12.5 % Control
Kv 2.1 Current (% Control), Average ([2]; 30 μM): 10.4 % Control
Kv 2.1 Current (% Control), single cells ([2]; 30 μM): 22.1 % Control and 13.7 % Control (2×) and 16.2 % Control and 6.7 % Control and 1.4 % Control and 12.8 % Control and 4.8 % Control (2×) and 8.7 % Control
IC50 ([2]; U-373MG cells expressing human Kv2.1, read-out: IC50, block of Kv2.1 current): 5.6 µM
Voltage-Gated Potassium Current (% Control), Average ([3]; 1 μM): 85.7 % Control
Voltage-Gated Potassium Current (% Control), single cells ([3]; 1 μM): 95.1 % Control and 84.7 % Control and 80.9 % Control and 85.4 % Control and 82.6 % Control
Voltage-Gated Potassium Current (% Control), Average ([3]; 3 μM): 62.5 % Control
Voltage-Gated Potassium Current (% Control), single cells ([3]; 3 μM): 86.4 % Control and 61.5 % Control and 46.4 % Control and 58.8 % Control and 59.3 % Control
Voltage-Gated Potassium Current (% Control), Average ([3]; 10 μM): 17.2 % Control
Voltage-Gated Potassium Current (% Control), single cells ([3]; 10 μM): 34.0 % Control and 9.1 % Control and 12.6 % Control (2×) and 17.8 % Control
Voltage-Gated Potassium Current (% Control), Average ([3]; 30 μM): 1.4 % Control
Voltage-Gated Potassium Current (% Control), single cells ([3]; 30 μM): 2.6 % Control and 0.8 % Control and 0.9 % Control and 1.2 % Control
IC50 ([3]; HIT-T15 cells, steady-state current at end of 20-mV pulse, read-out: IC50, block of voltage-gated potassium currents): 3.9 µM
